# How the values were obtained:
# [1] = system: MDCK cells; type: cell-based; details: 24 h, Alamar blue
# Description: acid group of vancomycin to yield the compounds 1-10. All the derivatives of vancomycin were purified by reverse phase HPLC to about 90 % purity with 65-75 % yield and characterized by HR-MS and 1H-NMR.
# Figure S1. Cytotoxicity of VanQAmC10 against MDCK cells. The CC50 (defined as the concentration at which the viability of compound treated cells reduced to 50%) was greater […]
# (1 picture or pasted object on this page, not shown here)
# 50 μL of serially diluted compound was added into 96 well microtiter plates. Freshly drawn, heparanized human blood was centrifuged down to obtain the erythrocytes and re-suspended to 5 vol % in PBS (pH 7.4). […] 100 μL of the supernatant from each well were transferred into fresh microtiter plates, and A540 was measured.
# % haemolysis = (A - A0)/(Atotal -A0) × 100, where A is the absorbance of the test well, A 0 the absorbance of the negative controls (without compound), and A total the absorbance of 100 % hemolysis wells (with Triton X -100), all at 540 nm. […]
# 2 h post incubation with dye, the absorbance was measured at 570 nm using 600 nm as […]
# The bactericidal activity of the compounds was evaluated with the time kill kinetics assay.
# MRSA ATCC 33591 cells were cultured in nutrient media at 37°C for 6 h. […] The bacterial colonies were counted and results are represented in logarithmic scale, i.e. log10 (CFU/mL). […]
# [2] = system: persister cells of MRSA; test: Bactericidal activity against persister cells; type: cell-based, S. aureus
# Description: Persister cells are a subpopulation of bacterial cultures that are refractory to antibiotic treatment.[28] […] This activity was more rapid than that observed against stationary phase cells. […]
# from 10 μg/mL. The bacteria with compounds and untreated control were incubated for 18 h at 37 ̊C under shaking and OD600 was measured.
# Microscopy of ΔamiAC MG1655 E. coli
# ΔamiAC MG1655 was cultured overnight in LB media at 37 ̊C. Cells were then inoculated in LB media at 1:100 dilution ratio and made to grow till O.D600 0.1. The cells were then treated with 4 μg/mL concentration of vancomycin and VanQAmC10 or left untreated for 2 h. 6 μl of sample was immobilized on 1% agarose pad and microscopy was performed as described above. The experiments were performed three times independently and the images are representative of results from three independent experiments. […]
# MRSA ATCC 33591 was grown to mid-log phase at 37 °C. […] The viable bacteria were then counted after 48 h incubation at 37 °C. […]
# Antagonization of antibacterial activity of AAV-qC10 was determined by addition of 500 μM N,N՛-diacetyl–L-Lys–D-Ala–D-Ala or 100 μg/mL of lipoteichoic acid to serial dilutions of the test compound. The MIC was then determined against MRSA by measuring the OD600 18-24 […]
# Vancomycin was chosen as control antibiotic for MRSA. The initial MIC values of VanQAmC10, vancomycin were determined against the respective bacteria. […]
# [3] = system: VRSA 4 (vancomycin-resistant S. aureus); parameters: method as in PMID 32195571; details: previously reported; cited from earlier work
compound,measurement,setting,value
CCCCCCCCCCNC(=O)C[N+](C)(C)CCCNC(=O)C1NC(=O)C2NC(=O)C(NC(=O)C3NC(=O)C(CC(N)=O)NC(=O)C(NC(=O)C(CC(C)C)NC)C(O)c4ccc(c(Cl)c4)Oc4cc3cc(c4OC3OC(CO)C(O)C(O)C3OC3CC(C)(N)C(O)C(C)O3)Oc3ccc(cc3Cl)C2O)c2ccc(O)c(c2)-c2c(O)cc(O)cc21 (stereo not drawn) [VanQAmC10 (8)],CC50,[1],> 64 µM
same,activity against persister cells,[2],concentration-dependent bactericidal activity
same,"Minimum inhibitory concentration, VRSA 4",[3],1.6 to 3.1 µM

# — paper PMC9977398, “Next-generation membrane-active glycopeptide antibiotics that also inhibit bacterial cell division” (Chemical Science, 2023)
